Test results reported in patent publication US11337996B2 (priority 2012, dated 2022).
Several values for one entry are separate records, joined by “and”; a condition that tells them apart may be missing. Equal values may be shown once. Entries after “also recorded” stand apart in the source; their conditions may differ. Read-outs that look alike come from different tables or passages of the source. Marks after values point to notes of the source that are not given here.

Tests used:
[1] = parameters: species or system Cobb 500 chicks; conditions: in vivo
α-toxin antigen = conditions: in vivo
E. maxima = tested on: E. maxima; parameters: species or system chickens; conditions: in vivo
[2] = tested on: Clostridium perfringens pathogen (CPP) without and with Aflatoxin; parameters: species or system Cobb 500 chicks; conditions: in vivo
NetB toxin antigen = conditions: in vivo
[3] = tested on: IL8, LITAF, IL-6, iNOS, TNFSF15 expression; parameters: species or system broiler chickens (Ross/Ross); conditions: in vivo
[4] = tested on: Clostridium perfringens pathogen (CPP) + 1 ppm aflatoxin B1; parameters: species or system Cobb 500 chicks; conditions: in vivo
Clostridium perfringens = format: in vivo, broiler chicken (Cobb X Cobb); conditions: infect
[5] = tested on: Clostridium perfringens (CPP) and aflatoxin; parameters: species or system Cobb 500 chicks; conditions: in vivo
[6] = tested on: Clostridium perfringens (CP); format: in vivo, chickens
[7] = tested on: IL8, LITAF, TNFSF15, IL-6, iNOS, IL-1β expression; parameters: species or system broiler chickens (Ross/Ross); conditions: in vivo
[8] = tested on: Clostridium perfringens pathogen (CPP); format: in vivo, Cobb 500 chicks; conditions: CPP Challenge

What does the source list for virginiamycin [VM]?
Feed Conversion Ratio Day 0-10 [1]: 1.28^b; Feed Conversion Ratio Day 0-24 [1]: 1.34^ef; Feed intake, g Day 0-10 [1]: 22.6^ab g; Feed intake, g Day 10-24 [1]: 72.2^abc g and 72.2^abe g; Gain, g Day 0-10 [1]: 180^a g; Gain, g Day 0-24 [1]: 983^a g; Gain, g Day 10-24 [1]: 804^a g; Mortality, % Day 0-10 [1]: 0^f %; Mortality, % Day 10-24 [1]: 0.63^bc %; performance [1]: improved performance; antibodies to α-toxin (optical density) (α-toxin antigen): notable increases; serum antibody levels against α-toxin (α-toxin antigen): significantly higher; Feed Conversion Day 0-21 (E. maxima): 1.676 ^ef; Feed Conversion Day 0-28 (E. maxima): 1.604 ^e; Feed Conversion Day 14-21 (E. maxima): 1.550 ^d; Feed Conversion Day 14-28 (E. maxima): 1.480 ^d; Lesion Score (E. maxima): 0.0^d; Necrotic Enteritis Mortality, % (E. maxima): 0.0^c %; Weight Gain Day 0-21 (E. maxima): 0.569 ^ab; Weight Gain Day 0-28 (E. maxima): 0.845 ^a; Weight Gain Day 14-21 (E. maxima): 0.325 ^a; Weight Gain Day 14-28 (E. maxima): 0.601 ^a; Daily Feed Intake, g 0-10 d [2]: 21.2^a g; Daily Feed Intake, g 0-24 d [2]: 47.6^ab g; Daily Feed Intake, g 10-24 d [2]: 68.2^b g; FCR (F:G) 0-10 d [2]: 1.24^c; FCR (F:G) 0-24 d [2]: 1.35^b; FCR (F:G) 10-24 d [2]: 1.39^b; Gain, g 0-10 d [2]: 173^a g; Gain, g 0-24 d [2]: 917^a g; Gain, g 10-24 d [2]: 744^a g; Lesion Score at d-20 [2]: 0.767; Mortality, % 0-10 d [2]: 0.42^c %; Mortality, % 10-24 d [2]: 0.63%; serum antibody levels against the NetB toxin antigen (NetB toxin antigen): higher; serum antibody response against NetB toxin antigen (NetB toxin antigen): increased; IL8 expression [3]: decreased; IL-6 expression [3]: generally decreased; LITAF expression [3]: decreased; iNOS expression [3]: generally decreased; Feed Conversion Ratio Day 0-24 [4]: 1.38^abcd; Feed Conversion Ratio Day 10-24 [4]: 1.43^ab; Feed intake, g Day 0-10 [4]: 20.0^efg; Feed intake, g Day 0-24 [4]: 41.7^f g; Feed intake, g Day 10-24 [4]: 58.7^g; Gain, g Day 0-10 [4]: 166^cd g; Gain, g Day 0-24 [4]: 788^f g; Gain, g Day 10-24 [4]: 622^f g; Lesions Day 20 [4]: 1.150^a; Mortality, % Day 0-10 [4]: 0.63^ef %; Mortality, % Day 10-24 [4]: 0.63^bc %; gain [4]: higher gains than adding NP; % NE Mortality (Clostridium perfringens): 1.6 bc %; Feed Consumption D0-21 (Clostridium perfringens): 4.733 b; Feed Consumption D0-28 (Clostridium perfringens): 6.313 b; Feed Consumption D14-21 (Clostridium perfringens): 2.312 c; Feed Consumption D14-28 (Clostridium perfringens): 2.891 bc; Feed Conversion D0-21 (Clostridium perfringens): 1.947 bc; Feed Conversion D0-28 (Clostridium perfringens): 1.929 bc; Feed Conversion D14-21 (Clostridium perfringens): 1.752 c; Feed Conversion D14-28 (Clostridium perfringens): 1.797 c; Weight Gain D0-21 (Clostridium perfringens): 0.316 b; Weight Gain D14-21 (Clostridium perfringens): 0.171 a; Weight Gain D14-28 (Clostridium perfringens): 0.367 b; NE (0-3) Lesion Score (Clostridium perfringens; DOT 21): 0.5 ab; feed conversion [5]: improved; also recorded: greatest improvement at 1.5 ppm; feed intake [5]: improved; gain [5]: improved; also recorded: higher gain that those birds not fed VM; also recorded: helps improve gain; also recorded: not at 1.5 ppm AFL; lesion scores [5]: increased; mortality [5]: decreased; Feed Conversion Day 0-21 ([6]; CP): 1.746 ^bcdef; Feed Conversion Day 0-28 ([6]; CP): 1.706 ^bcd; Feed Conversion Day 14-21 ([6]; CP): 1.566 ^d; Feed Conversion Day 14-28 ([6]; CP): 1.563 ^bcd; Weight Gain Day 0-21 ([6]; CP): 0.511 ^bcd; Weight Gain Day 0-28 ([6]; CP): 0.742 ^b; Weight Gain Day 14-21 ([6]; CP): 0.295 ^bcd; Weight Gain Day 14-28 ([6]; CP): 0.526 ^bcd; Lesion Score ([6]; CP, 0 to 3 score): 0.2^cd; Necrotic Enteritis Mortality, % ([6]; CP, listed as Virginiamycin): 6.3^bc %; Necrotic Enteritis Mortality, % ([6]; CP, listed as virginiamycin): significantly better than no product; Rank (lesion score, necrotic enteritis mortality, d 14-28 weight gain and feed conversion ratio) ([6]; Table A, birds with a Clostridium perfringens challenge): 1; reduction of disease, in words ([6]; in vivo): numerically the best; TNFSF15 expression [7]: decreased; iNOS expression [7]: decreased; Feed Conversion Ratio Day 0-10 [8]: 1.22^b; Feed Conversion Ratio Day 0-24 [8]: 1.33^f; Feed Conversion Ratio Day 10-24 [8]: 1.36^e; Feed intake, g Day 0-10 [8]: 20.9^cde g; Feed intake, g Day 0-24 [8]: 50.5^a g; Feed intake, g Day 10-24 [8]: 73.6^a g; Gain, g Day 0-10 [8]: 174^ab g; Gain, g Day 0-24 [8]: 980^a g; Gain, g Day 10-24 [8]: 806^a g; Lesions Day 20 [8]: 1.025^a; Mortality, % Day 0-10 [8]: 0.63^ef %; Mortality, % Day 10-24 [8]: 0.63^bc %; Gain, g Day 10-24 ([8]; listed as virginiamycin): improved gain compared to the diet with no product
